Source: patent US7148352B2, “Method of inhibiting neurotrophin-receptor binding” (Queen's University at Kingston, priority 1999, dated 2006)
Several values for one entry are separate records, joined by “and”; a condition that tells them apart may be missing. Equal entries are not always repeated.

How the values were obtained:
[1] = tested on: p75^NTR (PC12^nnr5 cells, expressing p75^NTR only); test: 125I-NGF receptor binding to PC12^nnr5 cells in the presence of competitor; design: species or system rat; conditions: compound 50 μM, 125I-NGF 1 nM, 2 h at 4° C.; for nnr5 % of Max, Avg: average of three values; for nnr5 % of Max (individual determinations): receptor binding as percentage of binding in absence of competitor
Method: (§1) The radio-iodination and receptor binding of NGF (Sutter et al., 1979) was performed with modifications (Ross et al., 1997) as follows: Evaluation of the ability of NCP compounds to inhibit TrkA and p75^NTR binding was determined by the binding of ^125I-NGF to PC12 cells (rat pheochromocytoma cells expressing TrkA and p75^NTR; obtained from ATCC) and PC12^nnr5 (rat pheochromocytoma cells expressing p75^NTR only; obtained from Dr. L. Greene, Columbia University, NY). The p75^NTR is in a low affinity state and a high affinity state, respectively, in these cell types (Ross et al., 1998). PC12 and PC12^nnr5 cells were grown in RPMI (Sigma) with 10% heat inactivated donor horse serum and 5% fetal calf serum. Cells were harvested by replacing the medium with calcium, magnesium-free balanced salt solution (Gey's solution) and incubating at 37° C. for 15 minutes. Cells were pelleted by centrifugation and suspended in HKR buffer (10 mM Hepes [pH 7.35] containing 125 mM NaCl, 4.8 mM KCl, 1.3 mM CaCl2, 1.2 mM MgSO4, 1.2 mM KH2PO4, 1 g/L glucose and 1 g/L BSA) at a cell concentration of 2×10^6/mL and kept at 4° C. Triplicate tubes were set up for total binding, non-specific binding and binding in the presence of candidate competitor molecule (i.e., a tube for each data point). Each tube contained ^125I-NGF (at 1 nM), 400,000 cells (for a final cell concentration of 10^6/mL) and NGF (50 nM, to define non-specific binding), as required. The tubes were incubated for 2 h at 4° C. and specific binding evaluated by measuring specifically bound DPM (Ross et al., 1997). Data were analysed and the results expressed as receptor binding observed in the presence of competitor (e.g. NCP compounds) as a percentage of receptor binding in the absence of a competitor.

[2] = tested on: T1, TrkA and p75^NTR (PC12 cells); test: 125I-NGF receptor binding to PC12 cells in the presence of competitor; design: species or system rat; conditions: compound 50 μM; 125I-NGF 1 nM; 2 h at 4° C.; receptor binding as percentage of binding in absence of competitor
T1 construct: PC12 cells (rat pheochromocytoma cells expressing TrkA and p75^NTR; obtained from ATCC); host or cells: PC12 rat pheochromocytoma cells (intact, in suspension)
T1 sequence (P01139 122-241): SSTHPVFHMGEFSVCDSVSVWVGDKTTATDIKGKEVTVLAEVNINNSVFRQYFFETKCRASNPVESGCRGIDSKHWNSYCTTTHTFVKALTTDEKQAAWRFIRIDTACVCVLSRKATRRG
Method: as §1

[3] = molecular target: T2, TrkA and p75^NTR (PC12 cells) (Mus musculus, UniProt P01139); test: as above; design: species or system rat; conditions: compound 50 μM; 125I-NGF 1 nM; 2 h at 4° C.; average of three values
T2 construct: PC12 cells (rat pheochromocytoma cells expressing TrkA and p75^NTR; obtained from ATCC); host or cells: PC12 rat pheochromocytoma cells (intact, in suspension)
T2 sequence (P01139 122-241): as above
Method: as §1

Structure (SMILES)	nnr5 % of Max, Avg [1]	nnr5 % of Max (individual determinations) [1]	PC12 % of Max (individual determinations) [2]	PC12 % of Max, Avg [3]	melting point
O=C(O)CCCCCN1C(=O)c2ccc([N+](=O)[O-])cc2C1=O [Compound 144, 4-nitro-N-(5-carboxypentyl)phthalimide]	= 73 % of Max	74 % of Max (2×) and 70 % of Max	68 % of Max and 89 % of Max and 77 % of Max	= 78 % of Max	–
O=C(O)c1ccc(N2C(=O)c3ccc([N+](=O)[O-])cc3C2=O)cc1 [Compound 145, 4-nitro-N-(p-carboxyphenyl)phthalimide]	= 78 % of Max	76 % of Max and 86 % of Max and 71 % of Max	60 % of Max and 77 % of Max and 73 % of Max	= 70 % of Max	–
O=C(O)c1cccc(N2C(=O)c3ccc([N+](=O)[O-])cc3C2=O)c1 [Compound 146, 4-nitro-N-(m-carboxyphenyl)phthalimide]	= 44 % of Max	48 % of Max and 43 % of Max and 42 % of Max	52 % of Max (2×) and 71 % of Max	= 58 % of Max	306 to 308 °C
Nc1ccc2c(c1)C(=O)N(c1ccc(C(=O)O)cc1)C2=O [Compound 165, 4-amino-N-(p-carboxyphenyl)phthalimide]	= 61 % of Max	61 % of Max and 53 % of Max and 68 % of Max	54 % of Max and 53 % of Max and 40 % of Max	= 49 % of Max	–
Nc1ccc2c(c1)C(=O)N(c1cccc(C(=O)O)c1)C2=O [Compound 166, 4-amino-N-(m-carboxyphenyl)phthalimide]	= 58 % of Max	55 % of Max and 64 % of Max and 56 % of Max	43 % of Max and 58 % of Max and 71 % of Max	= 57 % of Max	–
O=C(O)c1ccc(N2C(=O)c3cccc4cc([N+](=O)[O-])cc(c34)C2=O)cc1 [Compound 205, 3-nitro-N-(p-carboxyphenyl)-1,8-naphthalimide]	= 9 % of Max	0 % of Max and 11 % of Max and 15 % of Max	16 % of Max and 19 % of Max and 15 % of Max	= 17 % of Max	–
O=C(O)c1cccc(N2C(=O)c3cccc4cc([N+](=O)[O-])cc(c34)C2=O)c1 [Compound 206, 3-nitro-N-(m-carboxyphenyl)-1,8-naphthalimide]	= 23 % of Max	20 % of Max and 17 % of Max and 33 % of Max	25 % of Max and 29 % of Max and 35 % of Max	= 30 % of Max	–
O=C(O)c1ccccc1N1C(=O)c2cccc3cc([N+](=O)[O-])cc(c23)C1=O [Compound 207, 3-nitro-N-(o-carboxyphenyl)-1,8-naphthalimide]	= 58 % of Max	64 % of Max and 52 % of Max and 59 % of Max	60 % of Max and 34 % of Max and 69 % of Max	= 54 % of Max	–
O=C(O)c1ccc(CN2C(=O)c3cccc4cc([N+](=O)[O-])cc(c34)C2=O)cc1 [Compound 208, 3-nitro-N-(p-carboxyphenylmethyl)-1,8-naphthalimide]	= 83 % of Max	103 % of Max and 87 % of Max and 58 % of Max	56 % of Max and 45 % of Max and 47 % of Max	= 49 % of Max	–
O=C(O)c1ccc(N2C(=O)c3cccc4c([N+](=O)[O-])ccc(c34)C2=O)cc1 [Compound 225, 4-nitro-N-(p-carboxyphenyl)-1,8-naphthalimide]	= 56 % of Max	49 % of Max and 50 % of Max and 68 % of Max	69 % of Max and 60 % of Max and 68 % of Max	= 66 % of Max	–
O=C(O)c1cccc(N2C(=O)c3cccc4c([N+](=O)[O-])ccc(c34)C2=O)c1 [Compound 226, 4-nitro-N-(m-carboxyphenyl)-1,8-naphthalimide]	= 12 % of Max	13 % of Max (2×) and 10 % of Max	27 % of Max and 29 % of Max and 35 % of Max	= 30 % of Max	–
